This test in a line: antiviral protection against BTV-induced cell death – arbovirus, BSR cells, confirmation (AID 1250). To be noted: BSR cells, Bluetongue virus CPE, ATP luminescence, 72 h; at 20 µM (top of the series).

SMILES strings stand for the structures. Active and inactive are the calls of the source.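 The calls were made as follows: active = inhibition of at least 30% at one or more tested concentrations; inactive = inhibition below 30% at every dose.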

On to `CCOC(=O)CC1=NS(=O)(=O)c2ccccc2N1`, for which the CPE inhibition was 2.01% (inactive).
In the case of `COc1cc(C(=O)Nc2sc(C)c(C)c2C(=O)O)cc(OC)c1OC` it was 26% (inactive); in that of `CCOC(=O)c1ccc(N2CCN(c3ccccc3F)CC2)c(NC(=O)Nc2ccccc2)c1`, 19.7% (inactive).
In the case of `O=CNCC(=O)NCCc1ccc(Cl)cc1`, the CPE inhibition is 1.49% (inactive).
For `COc1ccc2[nH]c(=O)c(CN(CCCN(C)C)C(=O)Nc3ccc(F)cc3)cc2c1`, the CPE inhibition was 7.66% (inactive).
Regarding `O=C(CCn1c(=O)sc2ccccc21)NCCCn1ccnc1`, the CPE inhibition was 4.88% (inactive).
For `O=C(Nc1sc2c(c1C(=O)O)CCCC2)c1cccs1`, the CPE inhibition is 25.3% (inactive).
For `O=[N+]([O-])c1ccc(-c2c(O)c3ccccc3c3nc4ccccc4nc23)cc1` the value was 25.8% (inactive); for `O=C(O)c1cccc(NC(=S)NC(=O)c2ccc(-c3ccc(Cl)cc3)o2)c1`, 29.9% (inactive); for `O=C(NNC(=O)c1cccs1)c1ccc([N+](=O)[O-])cc1`, 4.62% (inactive).
For `CC(=O)Nc1ccc(-c2csc(NC(=O)c3ccc(C)o3)n2)cc1` the value was 27.8% (inactive); for `CCOc1ccc(-c2csc(NC(=O)CSCC(=O)O)n2)c2ccccc12`, 17.7% (inactive).
In the case of `CCN(Cc1ccncc1)Cc1c(O)ccc2cc(Br)ccc12` it was 8.02% (inactive); in that of `Cc1nnc2sc(SCc3cccc(Cl)c3)nn2c1=O`, 14.2% (inactive); in that of `CCOc1ccc(-n2c(=O)[nH]c3sc4c(c3c2=O)CCCC4)cc1`, 16.6% (inactive).
For the molecule `O=C1NC(=Nc2ccc(Cl)cc2)SC1Cc1cccc(Cl)c1Cl` (stereo not drawn), the CPE inhibition was 12.4% (inactive).
For `COc1cc(-c2nnc(-c3ccc(N4CCOCC4)cc3)o2)cc(OC)c1OC` the value was 8.33% (inactive); for `COc1ccc(C)cc1NC(=O)C1COc2ccccc2O1` (stereo not drawn), 11.1% (inactive); for `CCOC(=O)c1c(-c2ccccc2)csc1NC(=S)N(CC)CC`, 10.8% (inactive).
For `Cc1ccc(N2C(=O)C3CC(c4ccccc4)=C4C5C=CC(C6C(=O)N(c7ccc(C)cc7)C(=O)C56)C4C3C2=O)cc1` (stereo not drawn) the value was 11.8% (inactive); for `CCCN(CCC)C(=O)CSc1nc2c(sc(=S)n2-c2ccc(OCC)cc2)c(=O)[nH]1`, 28.7% (inactive); for `CCN(CC)C(=O)CSC1=N/C(=C/c2ccco2)C(=O)N1c1ccc(OC)c(Cl)c1`, 13.3% (inactive).
Consider `COc1ccc(CCCc2nnc(SCc3nc4ccccc4c(=O)[nH]3)n2C)cc1`, for which the CPE inhibition was 3.86% (inactive).
For `Cc1ccc(-c2cc(-c3ccccc3)no2)c(O)c1` the value was 15.6% (inactive).
In the case of `C/C(=N\NC(=O)COc1ccc([N+](=O)[O-])cc1)C(C)(C)C` it was 4.19% (inactive).
For `Cc1cc(/C=C2/C(=N)N3C(=NC2=O)SN=C3S(C)(=O)=O)c(C)n1-c1ccc(F)cc1` the value was 20.6% (inactive).
`O=C(c1ccco1)N1CCN(c2nc(-c3ccc(F)cc3)cs2)CC1`: the CPE inhibition was 17.1% (inactive).
Take `CCc1cccc(C)c1NC(=O)CN(C)Cc1ccc(Br)cc1`: the CPE inhibition is 10.2% (inactive).
For `C#CCSc1ncc(S(=O)(=O)c2ccccc2)c(=O)[nH]1` the value was 1.65% (inactive).
In the case of `COc1ccc(-c2nc(C3CCCCC3)no2)cc1OC` it was 8.02% (inactive).
In the case of `O=c1oc(/C=C/c2ccccc2)nc2ccccc12` it was 16.6% (inactive).
For the molecule `CCOc1ccc2nc(NC(=O)C3CCN(S(=O)(=O)c4cnc[nH]4)CC3)sc2c1`, the CPE inhibition was 11.9% (inactive).
For `Cc1ccc(-c2csc(NC(=O)c3cccc(S(=O)(=O)N4CCN(C)CC4)c3)n2)cc1` the value was 5.05% (inactive).
In the case of `C#CCNC(=O)C1=C[C@H](c2cn(C(C)=O)c3ccccc23)C[C@H](OCc2ccc(CO)cc2)O1` it was -0.3% (inactive); in that of `COc1cc2ccccc2cc1C(=O)NC(=S)Nc1cc(C(=O)O)ccc1C`, 17.8% (inactive).
In the case of `N#Cc1c(SCc2cccc(Cl)c2)sc(C(=O)c2ccccc2)c1N` it was 25.2% (inactive); in that of `COc1ccccc1C(=O)NCC1CCN(c2ccc(S(=O)(=O)N3CCOCC3)cc2)CC1`, 6.04% (inactive); in that of `Cn1c(Oc2ccccc2NCc2cc(Br)ccc2O)cc(=O)n(C)c1=O`, 14.3% (inactive).
Take `COc1ccc2nc(N3C(=O)CC(Cc4cc(C)cc(C)c4)C3=O)sc2c1` (stereo not drawn): the CPE inhibition is 13.6% (inactive).
As for `COC(=O)c1ccccc1NC(=O)CN1CCC(NC(=O)c2ccc(C)cc2)CC1`, the CPE inhibition was 21.3% (inactive).
In the case of `CCOC1=C/C(=C/c2c(N)n3nc(-c4ccccc4)sc3nc2=O)C=CC1=O` it was 18% (inactive).
For `O=C(NC1=NCCS1)c1ccc(Cl)c(S(=O)(=O)N2CCCC2)c1` the value was 12.3% (inactive); for `COC(=O)Nc1ccc(S(=O)(=O)N2CCC(C(=O)N(C)C3CCCCC3)CC2)cc1`, 4.71% (inactive).
Consider `CCc1ccc(CCC(=O)Nc2ccccc2C(=O)O)o1`, for which the CPE inhibition is 21.9% (inactive).
For `C=CCn1c(N)c(C(=O)NCc2cccnc2)sc1=S` the value was 2.55% (inactive); for `COCCN1C(=O)/C(=C/c2ccc(Oc3ccc([N+](=O)[O-])cn3)c(OC)c2)SC1=Nc1ccccc1`, 25.6% (inactive); for `N#C/C(=C\c1cc2ccccc2nc1N1CCCCC1)C(N)=O`, 22.5% (inactive).
Consider `COc1ccc(/C=C2/C(=O)N(CC3CCCO3)C(=S)N2C)c(OC)c1` (stereo not drawn), for which the CPE inhibition is 1.63% (inactive).
For `COCCn1c(C)cc(C(=O)CSc2cc(C)c3ccccc3n2)c1C` the value was 7.16% (inactive).
For `C=CCOc1c(Br)cc(/C=N/Nc2ccc(C(=O)O)cc2)cc1OCC` the value was 14.1% (inactive).
In the case of `CC(C)Oc1cccc(C(=O)NC(=S)Nc2ccccc2)c1` it was 6.77% (inactive); in that of `COCCCNc1nc(-c2ccncc2)nc2ccccc12`, 7.45% (inactive); in that of `Brc1ccccc1/C=N/Nc1ccc2ccccc2n1`, 14.7% (inactive).
Regarding `CCCCn1c(SCc2cccc([N+](=O)[O-])c2)nc2ccsc2c1=O`, the CPE inhibition was 3.1% (inactive).
In the case of `CCCc1cc(=O)[nH]c(SCc2ccc(C#N)cc2)n1` it was 14.6% (inactive); in that of `Cc1ccc(C)c(N2CCN(C(=O)Cc3ccc(-n4c(=O)[nH]c5ccsc5c4=O)cc3)CC2)c1`, 13.2% (inactive); in that of `O=C1c2[nH]nc(-c3ccccc3O)c2C(c2ccc(F)cc2)N1CC1CCCO1` (stereo not drawn), 10.9% (inactive).
As to `O=C(Nc1ccccc1C(=O)O)c1ccc(Br)c(S(=O)(=O)NCc2ccccc2)c1`, the CPE inhibition is 21.6% (inactive).
In the case of `CCCC(=O)Nc1cccc(NC(=O)c2ccc([N+](=O)[O-])cc2Cl)c1` it was 1.21% (inactive); in that of `NC(=O)c1cc([N+](=O)[O-])ccc1NCc1cccnc1`, 3.11% (inactive).
In the case of `CCOC(=O)C(NC(=O)c1cccc(Cl)c1)(OCc1ccc(F)cc1)C(F)(F)F` (stereo not drawn) it was -3.2% (inactive); in that of `COc1cccc(-n2c(C)cc(/C=C3/C(=N)N4C(=NC3=O)SN=C4S(C)(=O)=O)c2C)c1`, 19.6% (inactive); in that of `Cc1ccc(-n2cccc2/C=C2/C(=N)N3C(=NC2=O)SN=C3S(C)(=O)=O)cc1`, 12.1% (inactive).
In the case of `Cc1nn(Cc2ccccc2)c(Cl)c1C(=O)NC1CCCc2ccccc21` (stereo not drawn) it was 16.5% (inactive); in that of `O=C(O)C(Cc1ccccc1)N=Cc1c(O)c2ccccc2oc1=O` (stereo not drawn), 7.31% (inactive); in that of `Cc1[nH]nc2c1-c1nc3ccccc3nc1C(C)(C)C2`, 15.7% (inactive).
On to `CCn1c(COc2cccc3ccccc23)nnc1SCC(=O)OC1CCCCC1`, for which the CPE inhibition is 2.2% (inactive).
For `Cc1c(C(=O)NC(Cc2ccccc2)c2nc3ccccc3[nH]2)cccc1[N+](=O)[O-]` (stereo not drawn) the value was 13.5% (inactive); for `COc1ccc(-c2nnc(-c3ccc(Br)o3)o2)cc1OC`, 14.5% (inactive); for `O=c1oc(-c2ccccc2)nc2sc3c(c12)CCCC3`, 24.9% (inactive).
In the case of `Brc1ccccc1-c1nnc(SCc2nc3ccccc3s2)o1` it was 0.37% (inactive); in that of `O=C(Nc1nc(-c2ccccc2)cs1)c1ccc(=O)[nH]c1`, 12% (inactive); in that of `Cc1ccccc1-n1nc(CSc2nc3ccccc3[nH]2)c(-c2ccccc2)c1N`, 14.9% (inactive).
In the case of `Cc1ccc(C(=O)c2coc3cc([N+](=O)[O-])c(O)c([N+](=O)[O-])c23)cc1` it was 18.6% (inactive); in that of `COc1ccccc1-n1c(C)cc(/C=C2/C(=N)N3C(=NC2=O)SN=C3S(C)(=O)=O)c1C`, 18.1% (inactive); in that of `OC(CNC1CCCCC1)CNC1CCCCC1`, 7.57% (inactive).
For the molecule `O=C(COc1ccc(Cl)cc1)Nc1ncc([N+](=O)[O-])s1`, the CPE inhibition was 25.3% (inactive).
For `N#Cc1ccccc1NC(=O)c1ccccc1OCC(=O)NCc1ccco1` the value was 6.97% (inactive); for `Oc1ccc(F)cc1-c1cc(-c2ccc3c(c2)OCCO3)n[nH]1`, 7.86% (inactive).
For `Cc1ccc(C)c(Cn2nnc3c(=O)[nH]c(C(=O)Nc4ccc(F)cc4)nc32)c1` the value was 11.9% (inactive); for `O=C(Nc1ccn(Cc2ccccc2)n1)c1n[nH]c([N+](=O)[O-])c1Cl`, 14% (inactive); for `CCOc1ccc(-n2c(C)cc(/C=C3/C(=N)N4C(=NC3=O)SN=C4S(C)(=O)=O)c2C)cc1`, 25.5% (inactive).
In the case of `Cc1nn2c(-c3ccccc3)c(-c3ccccc3)nc2[nH]c1=O` it was 9.59% (inactive).

These data come from PubChem BioAssay AID1250 (SRMLSC, 2008).
